“Also recorded” adds a separate entry of the source.
Legend:
HSV-1 K26GFP = experiment: Viral entry by confocal microscopy with HSV-1 K26GFP in CaSki cells; assay type: cell-based; settings: CaSki cells pretreated with drug
Procedure: (§1) FIG. 3A-3C: Silencing of Akt inhibits viral entry independent of viral binding. Transfected CaSki cells were exposed to serial dilutions of HSV-2(G) at the moi (pfu/cell) indicated for 5 h at 4° C. The cell-bound viral particles were detected by analyzing Western blots of cell lysates for gD; blots were also probed with antibodies to total Akt (to assess silencing) and β-actin (control for protein loading) (a). Cells were transfected with siControl or siAkt123 and silencing confirmed by preparing Western blots of cell lysates 48 h post-transfection and probing for total Akt and β-actin expression (b). The siRNA-transfected cells were inoculated with HSV-2(G) and nuclear extracts were prepared and analyzed for the presence of the viral tegument protein VP16 by Western blotting; blots were probed with antibodies to histone-H1 as a nuclear extract control. […]
Two independent approaches were applied to determine if Akt contributes to viral entry. […] After incubation for 45 minutes, nuclear extracts were prepared and evaluated for VP16 by Western blot; histone H1 was included as a control for the nuclear extracts (FIG. 3b). […] Viral capsids were readily detected in the majority of siControl cells (73% and 82% 1 and 4 h pi, respectively), whereas viral capsids were detected in few siAkt cells (7% and 5.5%) (FIG. 3c). […]
Confocal microscopy: Viral entry was also monitored by confocal microscopy. […]

HSV-2(4674) = experiment: Ganglion-epithelial cell ex vivo co-culture model
Procedure: Sacral ganglia were extracted from mice on day 7 following intravaginal infection with the indicated viral inoculum and co-cultured ex vivo with Vero cells in medium containing DMSO or 20 μM miltefosine. Culture supernatants were collected on the indicated days post-co-culture and viral growth monitored by plaque assay. Results are presented as pfu/ml (mean±sd) obtained from two independent experiments; each with sacral ganglia (d).
Sacral ganglia were removed from mice that had been vaginally infected with 5×10^4 or 5×10^5 pfu of HSV-2 on Day 7 and were then co-cultured with Vero cells in the absence or presence of 20 μM miltefosine. Media was removed on the indicated days post-co-culture and assayed for the presence of infectious virus by titering on Vero cells.
Ganglion-epithelial cell ex vivo co-cultures: Seven days pi, sacaral ganglia were excised from animals that been intravaginally infected with 5×10^4 or 5×10^5 pfu of HSV-2(4674). The tissue was co-cultured with confluent Vero cells in 60-mm Petri dishes containing DMEM supplemented with 0.1% DMSO (control) or with 20 μM of miltefosine. Culture supernatants were collected on days 2-7 post-co-culture and concentration of virus released into the media determined by plaque assay on Vero cells.

[1] = system: HSV-induced Ca2+ response; experiment: Calcium kinetic measurements (fura-2 fluorometry) in CaSki cells; assay type: cell-based, human
Procedure: FIG. 4A-4E: Akt is required for HSV-induced calcium release and treatment with the ionophore, ionomycin, partially overcomes the block to infection in Akt-silenced cells. CaSki cells were loaded with Calcium Green 72 h post-transfection with the indicated siRNA and synchronously mock-infected or infected with purified HSV-2(G). Live images were acquired 3 min post-temperature shift to 37° C. For these xyz images, the plasma membranes are red (medium gray in grayscale), nuclei are blue (darkest gray in grayscale), and Ca^2+ is green (lighter gray in grayscale); colocalization of Ca^2+ and plasma membrane is yellow (lightest gray in grayscale). Representative images from 4 independent experiments are shown; the grid bars indicate a distance of 9.2 micrometers (a). Transfected cells were loaded with fura-2, infected with purified HSV-2 (moi 2 pfu/cell) or mock-infected and the kinetics of Ca^2+ response monitored. The mean intracellular [Ca^2+] for 5×10^4 cells over the first 30 minutes was quantified; control cells were also pretreated with wortmannin or miltefosine and then infected with HSV-2 (b). The cumulative [Ca^2+] released over 1 hour was calculated from 4 wells, each containing 5×10^4 cells (mock-infected, HSV-2 infected in the absence or presence of wortmannin or miltefosine, or following treatment of uninfected cells with 1 μM of ionomycin) (c). […]

HSV-2 [2] = experiment: HSV-2 plaque assay after pretreatment with Akt pharmacological inhibitors; assay type: cell-based; settings: CaSki, SK-N-SH or HaCAT cells pretreated 15 min with drug, infected with HSV-2 1 h, plaques counted 48 h pi
Procedure: FIG. 8A-8B: Pharmacological inhibitors of Akt signaling inhibit HSV-2 plaque formation. Cells (CaSki, SK-N-SH, or HaCAT) cells were pretreated for 15 minutes with each of the indicated drugs and then challenged with serial dilutions of HSV-2. The inoculum (and drug) were removed after 1 h, and then cells were overlaid with fresh medium; plaques were counted after 48 h incubation. Results are presented as percent pfu relative to control wells (treated with 0.1% DMSO) (a). Alternatively, cells were treated for 24 h with drugs alone (0.01% nonoxynol-9 (N9) is included as a positive toxicity control) and then cell viability determined by MTT assay (b).
Akt is a potential target for HSV treatment: A series of Akt pharmacological inhibitors being developed as adjunct therapy for cancer including MK-2206, an allosteric Akt inhibitor (Yap, 2011); inhibitor VIII, which binds to the pleckstrin homology domain of Akt and prevents subsequent phosphorylation as well as translocation of Akt to the plasma membrane (Calleja, 2009); miltefosine, a drug licensed for treatment of leishmaniasis and other protozoal infections that blocks Akt phosphorylation (Ruiter, 2003), and perifosine, a structural analogue of miltefosine in Phase 3 clinical trials for treatment of several cancers (Richardson, 2012) were tested. […]

Akt = experiment: Western blot of HSV-induced Akt phosphorylation (pS473-Akt1/2/3) in HaCAT cells; assay type: cell-based, human; settings: HaCAT cells pretreated with drug, HSV-2(G) moi 10 pfu/cell
[3] = system: HSV-2 clinical isolates DT1 and DT2; settings: CaSki cells pretreated
Procedure: CaSki cells were pretreated with control buffer or with miltefosine prior to Infection with an acyclovir susceptible (DT1) or acyclovir-resistant (DT2) isolate. Alternatively cells were pretreated with control buffer and acyclovir (dose) was added to the overlay media.
The HSV-2 clinical isolates 4674, DT1 (acyclovir susceptible) and DT2 (acyclovir resistant) were propagated on CaSki cells (Segarra, 2011)(Oram, 2000).
For plaque assays, cells were exposed to serial dilutions of virus for 1 h and then washed three times with phosphate buffered saline (PBS), pH 7.4, and overlaid with 199 medium containing 1% pooled human IgG. Plaques were counted by immunoassay using an anti-human IgG antibody peroxidase conjugate (Calbiochem) (Herold, 1991). In select experiments cells were pretreated with drugs that block Akt signaling or acyclovir was added to the overlay medium.

HSV-2 [4] = experiment: VP16 nuclear transport as surrogate of viral entry; assay type: cell-based; settings: 1 μM, treated immediately prior to infection, 1 pfu/cell
Procedure: as §1
FIG. 4A-4E: Akt is required for HSV-induced calcium release and treatment with the ionophore, ionomycin, partially overcomes the block to infection in Akt-silenced cells. […] Transfected cells were loaded with fura-2, infected with purified HSV-2 (moi 2 pfu/cell) or mock-infected and the kinetics of Ca^2+ response monitored. The mean intracellular [Ca^2+] for 5×10^4 cells over the first 30 minutes was quantified; control cells were also pretreated with wortmannin or miltefosine and then infected with HSV-2 (b). […]

HSV-1 and HSV-2 = settings: prior studies (Cheshenko, 2003; 2007); cited from earlier work

CCCCCCCCCCCCCCCCOP(=O)([O-])OCC[N+](C)(C)C [miltefosine, 2-(hexadecoxy-oxido-phosphoryl)oxyethyl-trimethyl-azanium]
viral entry (confocal imaging with GFP labeled virus) (HSV-1 K26GFP): prevented viral entry | cytotoxicity in ganglion ex vivo co-culture (HSV-2(4674); cells cultured in drug for one week): No cytotoxicity was observed | viral amplification in ganglion explant co-culture (HSV-2(4674); mouse sacral ganglia day 7 after vaginal HSV-2, co-cultured with Vero cells, 20 μM): blocked viral amplification | HSV-induced Ca2+ response ([1]; CaSki cells pretreated with drug (wortmannin 5 nM), HSV-2(G) moi 2 pfu/cell, first hour): blocked the HSV-induced Ca^2+ response; also recorded: prevented viral induced Ca^2+ response | inhibition of HSV infection (plaque formation, pfu relative to control wells) (HSV-2 [2]): most potent | viral induced phosphorylation of Akt (Akt): blocked viral induced phosphorylation of Akt | activity against acyclovir susceptible and acyclovir resistant viruses in a plaque assay [3]: active against acyclovir susceptible and acyclovir resistant viruses

C[C@H](CCC(=O)O)C[C@H](C)C[C@H](C)C(=O)/C=C(\O)[C@H](C)C[C@H](C)C/C=C/[C@@H](C)[C@@H](O)[C@@H](C)[C@@H](O)C[C@@H]1CC[C@@](C)([C@H]2CC[C@@](C)([C@@H](C)O)O2)O1 [ionomycin]
susceptibility to HSV entry in Akt-silenced cells (nuclear VP16) (HSV-2 [4]): partially restored the susceptibility to HSV entry | Ca2+ release from siRNA-transfected cell populations ([1]; 1 μM, confocal imaging and fluorometry): triggered the release of a comparable amount of Ca2+

NCCOB(c1ccccc1)c1ccccc1 [2-aminoethoxydiphenyl borate]
increase in [Ca2+] triggered by HSV (HSV-1 and HSV-2): blocked | viral entry (HSV-1 and HSV-2): blocked

— patent US9333219B2, “Method to treat or prevent herpesvirus infections” (ALBERT EINSTEIN COLLEGE OF MEDICINE OF YESHIVA UNIVERSITY, priority 2012, dated 2016)
